This note sets out measurements from patent publication US9464077B2, “Nitrogen-containing aromatic heterocyclic compound” (Astellas Pharma Inc., priority 2012, dated 2016).

Experiment [1] concerns FGFR3-BAIAP2L1-expressing NIH3T3 cells. As to the kind of experiment: Anchorage-independent cell growth inhibition, spheroid plate. The class given is cell-based. As to conditions: Mus musculus, NIH3T3, 96 h, 4 days, read-out: growth inhibition rate FGFR3-BAIAP2L1-expressing NIH3T3 Cells. The method, then:
In a 96-well spheroid plate (Sumilon Celltight Spheroid 96U; Sumitomo Bakelite), FGFR3-BAIAP2L1-expressing NIH3T3 cells were seeded at 1×10^3 cells per well in D-MEM medium containing 10% fetal bovine serum. A well supplemented with only medium was also prepared for a positive control. Culturing was performed overnight in the presence of 5% CO2 at 37° C. followed by addition of test compounds (final concentrations: 100 nM, 10 nM, and 1 nM). As a negative control, DMSO used as a solvent for the compounds was added at the same concentration (0.1%) as in the case of addition of the compounds. Then, culturing was performed in the presence of 5% CO2 at 37° C. for 4 days, and a cell counting reagent (CellTiter-Glo™ Luminescent Cell Viability Assay; Promega) was added and the resulting mixture was stirred for 20 minutes followed by measurement with a luminometer.

Experiment [2] concerns FGFR3-TACC3_v3 (N-FLAG) fusion polypeptide. As to the kind of experiment: In vitro kinase activity inhibition (HTRF KinEASE-TK). The format is biochemical, human. As to conditions: 100 μM ATP.

For `COc1cc(OC)c(F)c(COc2cnc(Nc3ccc(N4CCC(NCCO)CC4)cc3)nc2)c1F` [Example 299], in experiment [1] (1 nM), the inhibition (usually the change of the read-out against control, counted positive when it falls) at 0.001 µM came to 15%. Besides, the inhibition at 0.01 µM in experiment [1] (10 nM) stood at 81%. Further, the inhibition at 0.1 µM in experiment [1] (100 nM) came out at 91%. The “rate of inhibiting kinase activity v3” value came out at 47% in experiment [2] (1 nM), 88% in experiment [2] (10 nM) and 96% in experiment [2] (100 nM).
